Experimental data reported in ChEMBL document CHEMBL1139533, “Structure-activity relationship studies of a series of antiviral and antibacterial aglycon derivatives of the glycopeptide antibiotics vancomycin, eremomycin, and dechloroeremomycin” (J Med Chem, 2005).
Converted amounts (≈) assume the structure as drawn.

Legend:
[1] = system: Staphylococcus epidermidis; experiment: Minimum inhibitory concentration against 533 Staphylococcus epidermidis; format: functional
C3H/3T3 = experiment: Minimal cytotoxic concentration to cause an alteration in C3H/3T3 cell line morphology; format: functional; details: Mus musculus
Enterococcus faecalis [2] = experiment: Minimum inhibitory concentration against 559 glycopeptide susceptible enterococci Enterococcus faecalis; format: functional
Enterococcus faecium [3] = experiment: Minimum inhibitory concentration against glycopeptide resistant enterococci 569 Enterococcus faecium; format: functional
Enterococcus faecalis [4] = experiment: Minimum inhibitory concentration against glycopeptide resistant enterococci 560 Enterococcus faecalis; format: functional
Enterococcus faecium [5] = experiment: Minimum inhibitory concentration against glycopeptide susceptible enterococci 568 Enterococcus faecium; format: functional
[6] = system: Staphylococcus haemolyticus; experiment: Minimum inhibitory concentration against 602 Staphylococcus haemolyticus; format: functional
Staphylococcus aureus [7] = experiment: Minimum inhibitory concentration against glycopeptide intermediate-resistant 3797 Staphylococcus aureus; format: functional
Staphylococcus aureus [8] = experiment: Minimum inhibitory concentration against glycopeptide intermediate-resistant 3798 Staphylococcus aureus; format: functional
MOLT-4 = experiment: Cytostatic activity to the compound against Molt4/C8 cell line; format: functional, cell-based; details: Homo sapiens
[9] = system: Human immunodeficiency virus 2; experiment: Effective concentration against human immunodeficiency virus type 2; format: functional, organism-based
[10] = system: Human immunodeficiency virus 1; experiment: Effective concentration against human immunodeficiency virus type 1; format: functional, organism-based
CCRF-CEM = experiment: Cytostatic activity to the compound against CEM cell line; format: functional, cell-based; details: Homo sapiens
L1210 = experiment: Cytostatic activity against L1210 cell line; format: functional, cell-based; details: Mus musculus
[11] = system: Moloney murine sarcoma virus; experiment: Effective concentration against Moloney sarcoma virus; format: functional, organism-based, Viruses

## NCCCCCCCCCCNC(=O)[C@H]1NC(=O)[C@H]2NC(=O)[C@H](NC(=O)[C@@H]3NC(=O)[C@H](CC(N)=O)NC(=O)[C@H](N)[C@H](O)c4ccc(c(Cl)c4)Oc4cc3cc(c4O)Oc3ccc(cc3)[C@H]2O)c2ccc(O)c(c2)-c2c(O)cc(O)cc21
[1]
  MIC: > 32 µg/mL
C3H/3T3
  MCC: 20 µg/mL
Enterococcus faecalis [2]
  MIC: > 64 µg/mL
Enterococcus faecium [3]
  MIC: > 64 µg/mL
Enterococcus faecalis [4]
  MIC: > 64 µg/mL
Enterococcus faecium [5]
  MIC: > 64 µg/mL
[6]
  MIC: > 32 µg/mL
Staphylococcus aureus [7]
  MIC: > 32 µg/mL
Staphylococcus aureus [8]
  MIC: > 32 µg/mL
MOLT-4
  IC50: ≥ 250 µM
[9]
  EC50: ≥ 25 µM
[10]
  EC50: ≥ 25 µM
CCRF-CEM
  IC50: 124 µM
L1210
  IC50: ≥ 250 µM
[11]
  EC50: > 4 µM

## CN[C@H](CC(C)C)C(=O)N[C@H]1C(=O)N[C@@H](CC(N)=O)C(=O)N[C@H]2C(=O)N[C@H]3C(=O)N[C@H](C(=O)N[C@H](C(=O)O)c4cc(O)cc(O)c4-c4cc3ccc4O)[C@H](O)c3ccc(cc3)Oc3cc2cc(c3O)Oc2ccc(cc2Cl)[C@H]1O
[1]
  MIC: 32 µg/mL (≈ 28.8 µM)
C3H/3T3
  MCC: > 100 µg/mL
Enterococcus faecalis [2]
  MIC: 16 µg/mL (≈ 14.4 µM)
Enterococcus faecium [3]
  MIC: > 128 µg/mL
Enterococcus faecalis [4]
  MIC: > 128 µg/mL
Enterococcus faecium [5]
  MIC: 32 µg/mL (≈ 28.8 µM)
[6]
  MIC: 16 µg/mL (≈ 14.4 µM)
Staphylococcus aureus [7]
  MIC: > 64 µg/mL
Staphylococcus aureus [8]
  MIC: > 64 µg/mL
MOLT-4
  IC50: > 500 µM
[9]
  EC50: ≥ 250 µM
[10]
  EC50: 50 µM
CCRF-CEM
  IC50: > 500 µM
L1210
  IC50: > 500 µM
[11]
  EC50: > 100 µM

## NC(=O)C[C@@H]1NC(=O)[C@H](N)[C@H](O)c2ccc(cc2)Oc2cc3cc(c2O)Oc2ccc(cc2)[C@@H](O)[C@@H]2NC(=O)[C@H](NC(=O)[C@@H]3NC1=O)c1ccc(O)c(c1)-c1c(O)cc(O)cc1[C@@H](C(=O)O)NC2=O
[1]
  MIC: > 128 µg/mL
Enterococcus faecalis [2]
  MIC: > 128 µg/mL
Enterococcus faecium [3]
  MIC: > 128 µg/mL
Enterococcus faecalis [4]
  MIC: > 128 µg/mL
Enterococcus faecium [5]
  MIC: > 128 µg/mL
[6]
  MIC: > 128 µg/mL
Staphylococcus aureus [7]
  MIC: > 128 µg/mL
Staphylococcus aureus [8]
  MIC: > 128 µg/mL

## CN[C@H](CC(C)C)C(=O)N[C@H]1C(=O)N[C@@H](CC(N)=O)C(=O)N[C@H]2C(=O)N[C@H]3C(=O)N[C@H](C(=O)N[C@H](C(=O)NCC45CC6CC(CC(C6)C4)C5)c4cc(O)cc(O)c4-c4cc3ccc4O)[C@H](O)c3ccc(cc3)Oc3cc2cc(c3O)Oc2ccc(cc2Cl)[C@H]1O
[1]
  MIC: 8 µg/mL (≈ 6.37 µM)
C3H/3T3
  MCC: 100 µg/mL
Enterococcus faecalis [2]
  MIC: 4 µg/mL (≈ 3.18 µM)
Enterococcus faecium [3]
  MIC: 8 µg/mL (≈ 6.37 µM)
Enterococcus faecalis [4]
  MIC: 8 µg/mL (≈ 6.37 µM)
Enterococcus faecium [5]
  MIC: 8 µg/mL (≈ 6.37 µM)
[6]
  MIC: 8 µg/mL (≈ 6.37 µM)
Staphylococcus aureus [7]
  MIC: 8 µg/mL (≈ 6.37 µM)
Staphylococcus aureus [8]
  MIC: 8 µg/mL (≈ 6.37 µM)
MOLT-4
  IC50: 126 µM
[9]
  EC50: 7 µM
[10]
  EC50: 1.6 µM
CCRF-CEM
  IC50: 148 µM
L1210
  IC50: 94 µM
[11]
  EC50: 12 µM

## NC(=O)C[C@@H]1NC(=O)[C@H](N)[C@H](O)c2ccc(cc2)Oc2cc3cc(c2O)Oc2ccc(cc2)[C@@H](O)[C@@H]2NC(=O)[C@H](NC(=O)[C@@H]3NC1=O)c1ccc(O)c(c1)-c1c(O)cc(O)cc1[C@@H](C(=O)NCC13CC4CC(CC(C4)C1)C3)NC2=O
[1]
  MIC: > 32 µg/mL
C3H/3T3
  MCC: 100 µg/mL
Enterococcus faecalis [2]
  MIC: > 64 µg/mL
Enterococcus faecium [3]
  MIC: > 64 µg/mL
Enterococcus faecalis [4]
  MIC: > 64 µg/mL
Enterococcus faecium [5]
  MIC: > 64 µg/mL
[6]
  MIC: > 32 µg/mL
Staphylococcus aureus [7]
  MIC: > 32 µg/mL
Staphylococcus aureus [8]
  MIC: > 32 µg/mL
MOLT-4
  IC50: ≥ 250 µM
[9]
  EC50: 25.7 µM
[10]
  EC50: 30 µM
CCRF-CEM
  IC50: ≥ 250 µM
L1210
  IC50: > 250 µM
[11]
  EC50: 2.6 µM

## NC(=O)C[C@@H]1NC(=O)[C@H](N)[C@H](O)c2ccc(c(Cl)c2)Oc2cc3cc(c2O)Oc2ccc(cc2)[C@@H](O)[C@@H]2NC(=O)[C@H](NC(=O)[C@@H]3NC1=O)c1ccc(O)c(c1)-c1c(O)cc(O)cc1[C@@H](C(=O)NCC13CC4CC(CC(C4)C1)C3)NC2=O
[1]
  MIC: > 32 µg/mL
Enterococcus faecalis [2]
  MIC: > 64 µg/mL
Enterococcus faecium [3]
  MIC: > 64 µg/mL
Enterococcus faecalis [4]
  MIC: > 64 µg/mL
Enterococcus faecium [5]
  MIC: > 64 µg/mL
[6]
  MIC: > 32 µg/mL
Staphylococcus aureus [7]
  MIC: > 32 µg/mL
Staphylococcus aureus [8]
  MIC: > 32 µg/mL
MOLT-4
  IC50: > 250 µM
[9]
  EC50: 3.5 µM
[10]
  EC50: 5.5 µM
CCRF-CEM
  IC50: > 250 µM
L1210
  IC50: 175 µM

## CN[C@H](CC(C)C)C(=O)N[C@H]1C(=O)N[C@@H](CC(N)=O)C(=O)N[C@H]2C(=O)N[C@H]3C(=O)N[C@H](C(=O)N[C@H](C(=O)NCCCCCCCCCCN)c4cc(O)cc(O)c4-c4cc3ccc4O)[C@H](O)c3ccc(c(Cl)c3)Oc3cc2cc(c3O)Oc2ccc(cc2Cl)[C@H]1O [listing 1 of 2 here]
MOLT-4
  IC50: 228 µM
[9]
  EC50: 18.3 µM
[10]
  EC50: 2.5 µM
CCRF-CEM
  IC50: ≥ 250 µM
L1210
  IC50: > 250 µM
[11]
  EC50: 5 µM

## CN[C@H](CC(C)C)C(=O)N[C@H]1C(=O)N[C@@H](CC(N)=O)C(=O)N[C@H]2C(=O)N[C@H]3C(=O)N[C@H](C(=O)N[C@H](C(=O)NCCCCCCCCCCN)c4cc(O)cc(O)c4-c4cc3ccc4O)[C@H](O)c3ccc(c(Cl)c3)Oc3cc2cc(c3O)Oc2ccc(cc2Cl)[C@H]1O [listing 2 of 2 here]
[1]
  MIC: 2 µg/mL (≈ 1.54 µM)
C3H/3T3
  MCC: ≥ 20 µg/mL
Enterococcus faecalis [2]
  MIC: 0.5 µg/mL (≈ 0.385 µM)
Enterococcus faecium [3]
  MIC: 16 µg/mL (≈ 12.3 µM)
Enterococcus faecalis [4]
  MIC: 16 µg/mL (≈ 12.3 µM)
Enterococcus faecium [5]
  MIC: 2 µg/mL (≈ 1.54 µM)
[6]
  MIC: 1 µg/mL (≈ 0.77 µM)
Staphylococcus aureus [7]
  MIC: 2 µg/mL (≈ 1.54 µM)
Staphylococcus aureus [8]
  MIC: 2 µg/mL (≈ 1.54 µM)
